Data from the NIST ThermoML archive (doi:10.1021/je700145e).

Details: Liquid

CCCCCCCCCCO [decan-1-ol]
Details	mass density [kg/m3]
313.12 K, 1025 kPa	816.79
313.12 K, 2002 kPa	817.46
313.12 K, 2995 kPa	817.98
313.12 K, 4013 kPa	818.58
313.12 K, 5004 kPa	819.21
313.12 K, 5994 kPa	819.86
313.12 K, 7003 kPa	820.47
313.12 K, 7997 kPa	821.19
313.12 K, 9000 kPa	821.73
313.12 K, 9994 kPa	822.38
313.12 K, 10995 kPa	823.02
313.12 K, 11995 kPa	823.67
313.12 K, 12997 kPa	824.2
313.12 K, 13996 kPa	824.82
313.12 K, 14998 kPa	825.42
313.12 K, 15990 kPa	826.01
313.12 K, 16995 kPa	826.61
313.12 K, 17986 kPa	827.14
313.12 K, 18992 kPa	827.76
313.12 K, 19993 kPa	828.31
313.12 K, 20999 kPa	828.88
313.12 K, 21509 kPa	829.19
323.09 K, 1002 kPa	809.87
323.09 K, 2011 kPa	810.59
323.09 K, 3019 kPa	811.21
323.09 K, 4014 kPa	811.83
323.09 K, 5006 kPa	812.47
323.09 K, 6012 kPa	813.18
323.09 K, 7002 kPa	813.8
323.09 K, 8003 kPa	814.42
323.09 K, 9008 kPa	815.1
323.09 K, 10006 kPa	815.7
323.09 K, 11000 kPa	816.38
323.09 K, 12002 kPa	816.97
323.09 K, 13002 kPa	817.64
323.09 K, 14000 kPa	818.21
323.09 K, 15017 kPa	818.84
323.09 K, 16003 kPa	819.4
323.09 K, 17015 kPa	820.02
323.09 K, 18006 kPa	820.61
323.09 K, 19007 kPa	821.24
323.09 K, 20007 kPa	821.84
323.09 K, 21002 kPa	822.41
323.09 K, 22014 kPa	823.01
333.04 K, 1046 kPa	802.82
333.04 K, 2018 kPa	803.5
333.04 K, 3008 kPa	804.21
333.04 K, 4012 kPa	804.88
333.04 K, 5059 kPa	805.62
333.04 K, 6016 kPa	806.29
333.04 K, 7022 kPa	807
333.04 K, 8014 kPa	807.64
333.04 K, 9015 kPa	808.34
333.04 K, 10015 kPa	808.97
333.04 K, 11019 kPa	809.64
333.04 K, 12007 kPa	810.31
333.04 K, 13019 kPa	810.96
333.04 K, 14019 kPa	811.6
333.04 K, 15014 kPa	812.24
333.04 K, 16021 kPa	812.88
333.04 K, 17026 kPa	813.5
333.04 K, 18023 kPa	814.11
333.04 K, 19018 kPa	814.72
333.04 K, 20025 kPa	815.35
333.04 K, 21020 kPa	815.94
333.04 K, 22032 kPa	816.58
342.98 K, 1058 kPa	795.63
342.98 K, 2045 kPa	796.4
342.98 K, 3022 kPa	797.12
342.98 K, 4035 kPa	797.9
342.98 K, 5028 kPa	798.63
342.98 K, 6030 kPa	799.37
342.98 K, 7023 kPa	800.07
342.98 K, 8028 kPa	800.78
342.98 K, 9062 kPa	801.51
342.98 K, 10035 kPa	802.22
342.98 K, 11029 kPa	802.92
342.98 K, 12064 kPa	803.64
342.98 K, 13023 kPa	804.31
342.98 K, 14042 kPa	805
342.98 K, 15022 kPa	805.66
342.98 K, 16022 kPa	806.36
342.98 K, 17021 kPa	807
342.98 K, 18034 kPa	807.7
342.98 K, 19025 kPa	808.35
342.98 K, 20038 kPa	808.98
342.98 K, 21018 kPa	809.62
342.98 K, 22035 kPa	810.28
352.86 K, 1069 kPa	788.44
352.86 K, 2043 kPa	789.24
352.86 K, 3040 kPa	790.04
352.86 K, 4048 kPa	790.78
352.86 K, 5038 kPa	791.59
352.86 K, 6043 kPa	792.34
352.86 K, 7038 kPa	793.09
352.86 K, 8039 kPa	793.84
352.86 K, 9040 kPa	794.57
352.86 K, 10038 kPa	795.32
352.86 K, 11032 kPa	796.04
352.86 K, 12032 kPa	796.74
352.86 K, 13040 kPa	797.47
352.86 K, 14046 kPa	798.18
352.86 K, 15043 kPa	798.89
352.86 K, 16037 kPa	799.59
352.86 K, 17040 kPa	800.26
352.86 K, 18046 kPa	800.95
352.86 K, 19040 kPa	801.63
352.86 K, 20064 kPa	802.32
352.86 K, 21048 kPa	802.96
352.86 K, 22049 kPa	803.62
362.89 K, 1077 kPa	781.02
362.89 K, 2027 kPa	781.83
362.89 K, 3089 kPa	782.69
362.89 K, 4047 kPa	783.49
362.89 K, 5061 kPa	784.29
362.89 K, 6060 kPa	785.12
362.89 K, 7041 kPa	785.91
362.89 K, 8049 kPa	786.7
362.89 K, 9049 kPa	787.47
362.89 K, 10052 kPa	788.25
362.89 K, 11045 kPa	788.99
362.89 K, 12044 kPa	789.75
362.89 K, 13054 kPa	790.54
362.89 K, 14053 kPa	791.25
362.89 K, 15052 kPa	792
362.89 K, 16056 kPa	792.77
362.89 K, 17063 kPa	793.47
362.89 K, 18062 kPa	794.2
362.89 K, 19062 kPa	794.91
362.89 K, 20068 kPa	795.64
362.89 K, 21072 kPa	796.35
362.89 K, 22063 kPa	797.03

CCCCCCCCO [octan-1-ol]
Details	mass density [kg/m3]
313.14 K, 1004 kPa	811.26
313.14 K, 2019 kPa	811.95
313.14 K, 3000 kPa	812.59
313.14 K, 4020 kPa	813.22
313.14 K, 4995 kPa	813.89
313.14 K, 6000 kPa	814.53
313.14 K, 7007 kPa	815.21
313.14 K, 8012 kPa	815.83
313.14 K, 8994 kPa	816.51
313.14 K, 10014 kPa	817.19
313.14 K, 11007 kPa	817.79
313.14 K, 12000 kPa	818.42
313.14 K, 12997 kPa	819.05
313.14 K, 14001 kPa	819.67
313.14 K, 14997 kPa	820.27
313.14 K, 16002 kPa	820.89
313.14 K, 17001 kPa	821.48
313.14 K, 17997 kPa	822.1
313.14 K, 19004 kPa	822.69
313.14 K, 20007 kPa	823.28
313.14 K, 21004 kPa	823.86
323.09 K, 1007 kPa	804.26
323.09 K, 2016 kPa	804.97
323.09 K, 3019 kPa	805.7
323.09 K, 4025 kPa	806.4
323.09 K, 5012 kPa	807.07
323.09 K, 6093 kPa	807.82
323.09 K, 7143 kPa	808.56
323.09 K, 8009 kPa	809.12
323.09 K, 8989 kPa	809.77
323.09 K, 10014 kPa	810.47
323.09 K, 11031 kPa	811.14
323.09 K, 12010 kPa	811.82
323.09 K, 13005 kPa	812.44
323.09 K, 14003 kPa	813.11
323.09 K, 15012 kPa	813.76
323.09 K, 16009 kPa	814.4
323.09 K, 17005 kPa	815.04
323.09 K, 18013 kPa	815.66
323.09 K, 19003 kPa	816.26
323.09 K, 20025 kPa	816.9
323.09 K, 21081 kPa	817.56
323.09 K, 22009 kPa	818.09
333.05 K, 1038 kPa	797.31
333.05 K, 2029 kPa	798.03
333.05 K, 2999 kPa	798.76
333.05 K, 4033 kPa	799.51
333.05 K, 5020 kPa	800.25
333.05 K, 6014 kPa	800.97
333.05 K, 7029 kPa	801.69
333.05 K, 8011 kPa	802.44
333.05 K, 9005 kPa	803.11
333.05 K, 10022 kPa	803.83
333.05 K, 11011 kPa	804.55
333.05 K, 12021 kPa	805.23
333.05 K, 13022 kPa	805.92
333.05 K, 14031 kPa	806.61
333.05 K, 15010 kPa	807.28
333.05 K, 16023 kPa	807.92
333.05 K, 17012 kPa	808.59
333.05 K, 18035 kPa	809.23
333.05 K, 19009 kPa	809.87
333.05 K, 20002 kPa	810.51
333.05 K, 21011 kPa	811.15
333.05 K, 22019 kPa	811.82
343.03 K, 1049 kPa	790.6
343.03 K, 2003 kPa	791.16
343.03 K, 2981 kPa	791.93
343.03 K, 4017 kPa	792.68
343.03 K, 5000 kPa	793.37
343.03 K, 6005 kPa	794.05
343.03 K, 7018 kPa	794.88
343.03 K, 8104 kPa	795.68
343.03 K, 9014 kPa	796.44
343.03 K, 10022 kPa	797.1
343.03 K, 11028 kPa	797.87
343.03 K, 11997 kPa	798.58
343.03 K, 13030 kPa	799.3
343.03 K, 14005 kPa	800
343.03 K, 15002 kPa	800.66
343.03 K, 16032 kPa	801.38
343.03 K, 17016 kPa	801.99
343.03 K, 18012 kPa	802.68
343.03 K, 19005 kPa	803.29
343.03 K, 20018 kPa	803.98
343.03 K, 21014 kPa	804.61
343.03 K, 22004 kPa	805.23
352.89 K, 1023 kPa	782.71
352.89 K, 2011 kPa	783.55
352.89 K, 3032 kPa	784.42
352.89 K, 4022 kPa	785.42
352.89 K, 5005 kPa	786.18
352.89 K, 6026 kPa	787.13
352.89 K, 7003 kPa	787.9
352.89 K, 8016 kPa	788.71
352.89 K, 9007 kPa	789.47
352.89 K, 10003 kPa	790.22
352.89 K, 11022 kPa	791
352.89 K, 12170 kPa	791.78
352.89 K, 13015 kPa	792.51
352.89 K, 14018 kPa	793.24
352.89 K, 15009 kPa	794
352.89 K, 16023 kPa	794.74
352.89 K, 17010 kPa	795.48
352.89 K, 18002 kPa	796.16
352.89 K, 19029 kPa	796.9
352.89 K, 20046 kPa	797.63
352.89 K, 21023 kPa	798.3
362.77 K, 1051 kPa	775.67
362.77 K, 2025 kPa	776.41
362.77 K, 3016 kPa	777.19
362.77 K, 4009 kPa	778.05
362.77 K, 4974 kPa	778.77
362.77 K, 6005 kPa	779.51
362.77 K, 7006 kPa	780.3
362.77 K, 8011 kPa	780.95
362.77 K, 9008 kPa	781.79
362.77 K, 10034 kPa	782.62
362.77 K, 11013 kPa	783.32
362.77 K, 11987 kPa	784.03
362.77 K, 13015 kPa	784.77
362.77 K, 14006 kPa	785.51
362.77 K, 14997 kPa	786.3
362.77 K, 16001 kPa	787.03
362.77 K, 17013 kPa	787.79
362.77 K, 17997 kPa	788.55
362.77 K, 19000 kPa	789.33
362.77 K, 20023 kPa	790.04
362.77 K, 21004 kPa	790.83
